Assay results reported in patent US20240252428A1, “METHODS OF PROVIDING BIRTH CONTROL” (THE POPULATION COUNCIL, INC., priority 2021, published 2024).
Values belong to the compound of their own block, whether it stands above or below them.

Legend:
progesterone receptor = molecular target: T1, progesterone receptor (Homo sapiens, UniProt P06401); assay: Progesterone receptor activity of SA metabolites; format: biochemical
T1 sequence (P06401 1-933): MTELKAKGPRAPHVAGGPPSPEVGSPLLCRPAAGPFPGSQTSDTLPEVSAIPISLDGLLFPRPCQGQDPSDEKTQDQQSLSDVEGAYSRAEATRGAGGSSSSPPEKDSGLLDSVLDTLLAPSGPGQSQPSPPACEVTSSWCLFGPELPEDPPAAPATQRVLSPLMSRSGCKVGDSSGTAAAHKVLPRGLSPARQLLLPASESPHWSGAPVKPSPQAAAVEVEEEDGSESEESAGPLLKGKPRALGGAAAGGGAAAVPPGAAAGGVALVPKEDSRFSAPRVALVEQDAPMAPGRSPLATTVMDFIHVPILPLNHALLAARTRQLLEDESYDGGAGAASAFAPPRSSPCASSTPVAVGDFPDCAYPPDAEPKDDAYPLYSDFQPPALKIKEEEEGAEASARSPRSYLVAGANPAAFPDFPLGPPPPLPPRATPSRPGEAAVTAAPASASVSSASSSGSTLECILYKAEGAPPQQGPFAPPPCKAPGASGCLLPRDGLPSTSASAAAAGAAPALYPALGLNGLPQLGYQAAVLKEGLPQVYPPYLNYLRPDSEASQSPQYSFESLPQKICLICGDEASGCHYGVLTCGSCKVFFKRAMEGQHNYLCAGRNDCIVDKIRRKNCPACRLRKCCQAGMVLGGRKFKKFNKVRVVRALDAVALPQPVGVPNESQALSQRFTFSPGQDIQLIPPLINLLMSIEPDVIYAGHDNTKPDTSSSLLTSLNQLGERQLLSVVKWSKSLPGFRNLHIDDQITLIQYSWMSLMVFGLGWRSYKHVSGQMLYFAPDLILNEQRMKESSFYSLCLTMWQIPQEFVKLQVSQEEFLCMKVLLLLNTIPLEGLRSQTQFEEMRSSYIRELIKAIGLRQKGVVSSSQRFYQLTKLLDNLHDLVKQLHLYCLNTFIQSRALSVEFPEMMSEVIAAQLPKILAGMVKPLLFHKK
Text: The hydroxylated EE metabolites have weak estrogenic activity.

[1] = Recoverable SA and EE after storage; format: physicochemical; conditions: for amount recoverable from the vaginal system: over 24 months of storage at 25° C. and 60% relative humidity
Experimental: This was quite surprising as a similar trend was not observed during long-term stability studies on the cores before assembly.
• Diluent: methanol/water 58/42 v/v • Dried NES and EE before weighing (100-105° C. 3 h) • EE stock solution: Dissolved 25.0 mg of EE and diluted to 250.0 mL with methanol (duplicates, EE1 and EE2) • NES stock solution: Dissolved 50.0 mg of NES and diluted to 100.0 mL with methanol (duplicates, NES1 and NES2) • Standard solutions: • S1: Diluted 5.0 mL of NES1 and 4.0 mL of EE1 to 50.0 mL with diluent • S2: Diluted 6.0 mL of NES2 and 5.0 mL of EE2 to 50.0 mL with diluent • S3: Diluted 8.0 mL of NES1 and 7.0 mL of EE1 to 50.0 mL with diluent • S4: Diluted 10.0 mL of NES2 and 9.0 mL of EE2 to 50.0 mL with diluent • System suitability solution (SST solution): Diluted 5.0 mL acetone+7.0 mL NES1+6.0 mL EE1 to 50.0 mL with diluent.
Rings were cut into 8 pieces and each piece was divided lengthwise then transferred to an Erlenmeyer flask. • 140 mL of acetone (weight of flask was noted before and after acetone addition) was added to the flask.
• analytical column: Discovery C8, 5 μm, 150×4.6 mm (Supelco) • pre-column: Supelguard, Discovery C8, 5 μm, 20×4.0 mm (Supelco) • stationary phase: endcapped C8 (5 μm particle size) USP L7 • temperature: 30° ° C. Mobile phase: methanol/water 58/42, isocratic elution Flow rate: 1.2 mL/min Detection (assay): NES UV 240 nm, EE UV 280 nm Detection (identity): PDA (photodiode array detector) scanning 220-310 nm, NES 240 nm, EE 280 nm
Run time: 15 min System suitability: SST solution • Area precision (n=5): RSD (%)≤2.0 • Peak tailing (T): 0.8≤T≤1.5 • Blank injections: No interfering peaks Retention times: EE approximately 7 min and NES approximately 9 min Results Assay: Report the average value of three different rings and express as mg EE/ring and mg NES/ring. Results Content uniformity: Calculate the average value of ten different rings. Report with or without remarks according the guidelines outlined in the US Pharmacopeial Convention, incorporated herein by reference, and in particular USP <905>. […]

[2] = Drug-drug interaction study with vaginal miconazole formulations; format: in vivo; conditions: for overall increase in exposure: with 1 day or 3-day oil-based miconazole suppository; for change in exposure from the vaginal system: with water-based vaginal miconazole cream
Text: However, the use of either the 1 day or the 3-day oil-based miconazole suppository was associated with an overall increase in exposure up to 67% for EE and 32% for SA. Considering the potential long-term effect on vaginal system performance, concurrent use of oil-based vaginal suppositories should not occur with the system's use. If there is a need to treat a vaginal condition, water-based vaginal cream or oral therapy may be used concurrently with the vaginal system.

[3] = PK sub-study of the vaginal system over 13 product-use cycles (21 days in/7 days out), serum SA and EE; format: in vivo, human; design: AUC0-21 day / AUC0-1 day: concentration or dose not given beside the values
Experimental: The pharmacokinetics (PK) of the vaginal system described herein were determined during studies related to the prior approved use (i.e., 13 product-use cycles comprising a 21-day “product-in” period and a 7-day “product-out” period). Studies were conducted in 39 women who used the system for up to the 13 product-use cycles. […] Over subsequent product-use cycles, the peak serum concentrations of SA and EE declined.
During a phase 3 trial of the vaginal ring system, three centers participated in a PK sub-study. The PK sub-study was an open-label, multicenter, non-randomized phase 1 study evaluating the PK and pharmacodynamics (PD) of a self-administered vaginal ring system. Enrolled women were healthy, aged 18-38 years, who had regular cycles of 28±7 days and were sexually active with no intention of becoming pregnant for the following 13 months. Exclusion criteria were those typical for oral contraceptive assessments. Women were not permitted to use hormonal contraceptives (other than the study vaginal ring) or vaginal lubricants that could have interfered with steroid absorption during the study.
Women were instructed to use the SA/EE vaginal ring system for 13 consecutive cycles following a 21-days-in and 7-days-out regimen, with the initial ring insertion (day 1 of cycle 1) under investigator supervision at the study clinic. […] In the PK substudy, blood samples from each woman were collected 8 times (see below) per assessed cycles (1, 3, and 13) as per the protocol.
For serum SA and EE measurements, blood samples were collected on treatment days 1-5, 8, 15, and 22 during cycles 1, 3, and 13 with the serum stored at −20° C. Steroid concentrations were determined at each time point using a validated gas chromatography/tandem mass spectrometry (GC-MS/MS; Taylor Technology, Princeton, NJ); the lower limits of quantification (LLOQ) were 50 pg/mL (135 pmol/L) for SA and 10 pg/mL (33.74 pmol/L) for EE. The linear calibration range was 50.0 to 5000 pg/mL for SA and 10.0 to 1000 pg/mL for EE. The inter-assay coefficient of variation for SA was 7-15.5% and for EE 8-13% for low, medium, and high-quality control samples used during assays. The intra-assay coefficient of variation for both SA and EE was lower than 12%.

[4] = PK study in females with BMI <25 vs BMI >25; format: in vivo, human; conditions: 18 females BMI <25 vs 21 females BMI >25
Text: The vaginal system described herein has not been adequately evaluated in females with a body mass index of >29 kg/m2. […] Higher body weight associates with lower systemic exposure of SA and EE.

[5] = EE in serum, cycle 1, mean (SD)
[6] = EE in serum, cycle 3, mean (SD)
[7] = EE in serum, cycle 13, mean (SD)

EC50 to progesterone receptor, fold higher than that of SA (progesterone receptor): 10 fold
SMILES: C=C1CC2C3CCC4CC(=O)CCC4C3CCC2(C)C1(OC(C)=O)C(C)=O (stereo not drawn) [5α-dihydro]

amount recoverable from the vaginal system [1]: decreased in a time-dependent manner
overall increase in exposure [2]: up to 67%
change in exposure from the vaginal system [2]: no change
Cavg ([3]; EE in serum, cycle 1, mean): 0.148 nM
Cmax ([3]; EE in serum, cycle 1, mean): 0.435 nM
AUC0-1 day [3, 5]: 7,077 (2,359) pmol*hr/L
AUC0-21 day [3, 5]: 74,814 (33,026) pmol*hr/L
Cavg ([3]; EE in serum, cycle 3, mean): 0.098 nM
AUC0-1 day [3, 6]: 3,033 (1,348) pmol*hr/L
AUC0-21 day [3, 6]: 49,539 (15,839) pmol*hr/L
Cavg ([3]; EE in serum, cycle 13, mean): 0.064 nM
AUC0-1 day [3, 7]: 2,359 (1,011) pmol*hr/L
AUC0-21 day [3, 7]: 32,352 (13,817) pmol*hr/L
Cmax ([3]; female, human, serum, other: vaginal, EE in serum, cycle 3, mean): 0.202 nM
Cmax ([3]; female, human, serum, other: vaginal, EE in serum, cycle 13, mean): 0.131 nM
Tmax ([3]; female, human, serum, vaginal administration, product-use cycles 1, 3 and 13, read-out: median Tmax): ~2 h
decrease in systemic exposure (AUC 0-21 day) between the two BMI groups [4]: ≤ 33%
SMILES: C#C[C@]1(O)CC[C@H]2[C@@H]3CCc4cc(O)ccc4[C@H]3CC[C@@]21C [EE, 19-nor-17α-pregna-1,3,5(10)-trien-20-yne-3,17-diol]
amount recoverable from the core by extraction ([1]; cores before assembly, after extended storage): full amount of EE was found to be recoverable

SMILES: C=C1C[C@H]2[C@@H]3CCC4=CC(=O)CC[C@@H]4[C@H]3CC[C@]2(C)[C@@]1(OC(C)=O)C(C)=O [SA, 16-methylene-17α-acetoxy-19-nor-pregn-4-ene-3,20-dione]
amount recoverable from the vaginal system [1]: remained essentially constant
overall increase in exposure [2]: ≤ 32%
change in exposure from the vaginal system [2]: no change
AUC0-21 day ([3]; SA in serum, cycle 1, mean): 259,740 pmol*hr/L
Cavg ([3]; SA in serum, cycle 1, mean): 0.516 nM
Cmax ([3]; SA in serum, cycle 1, mean): 3.1 nM
AUC0-1 day ([3]; SA in serum, cycle 1, mean (SD)): 40,500 (8,640) pmol*hr/L
AUC0-21 day ([3]; SA in serum, cycle 3, mean): 480,330 pmol*hr/L
Cavg ([3]; SA in serum, cycle 3, mean): 0.3537 nM
Cmax ([3]; SA in serum, cycle 3, mean): 0.98 nM
AUC0-1 day ([3]; SA in serum, cycle 3, mean (SD)): 36,450 (4,320) pmol*hr/L
AUC0-21 day ([3]; SA in serum, cycle 13, mean): 127,440 pmol*hr/L
Cavg ([3]; SA in serum, cycle 13, mean): 0.254 nM
Cmax ([3]; SA in serum, cycle 13, mean): 0.794 nM
AUC0-1 day ([3]; SA in serum, cycle 13, mean (SD)): 10,530 (3,780) pmol*hr/L
decrease in systemic exposure (AUC 0-21 day) between the two BMI groups [4]: up to 16%
